Test results taken from patent US10626116B2, “Crystalline form of BTK kinase inhibitor and preparation method thereof” (Jiangsu Hengrui Medicine Co., Ltd., priority 2016, dated 2020).

Legend:
[1] = Stability under lighting, heating and high humidity; purity detected by HPLC; format: physicochemical; details: for Purity by HPLC, 40° C.: heating 40° C.; for Purity by HPLC, 40° C. / Purity by HPLC, 60° C. / Purity by HPLC, RH 75% / Purity by HPLC, RH 90% / Purity by HPLC, Lighting: spread flat in the air; for Purity by HPLC, 60° C.: heating 60° C.; for Purity by HPLC, RH 75%: high humidity RH 75%; for Purity by HPLC, RH 90%: high humidity RH 90%; for Purity by HPLC, Lighting: lighting 4500 Lux
Method: The sample of amorphous form prepared in Example 1 and the sample of crystal form I prepared in Example 2 were spread flat in the air to test their stability under conditions of lighting (4500 Lux), heating (40° C., 60° C.), and high humidity (RH 75%, RH 90%), respectively. Samplings were carried out on Day 5 and Day 10.

[2] = Special stability study of crystal form I (grinding, heating, tableting); format: physicochemical
Source text: Crystal form I of the compound of formula (I) prepared according to the method of Example 2 was ground, heated and tableted.

[3] = Grinding treatment for 10 minutes in a mortar under nitrogen atmosphere, batch 20150427G
[4] = Heating treatment for 3 hours at 80° C., batch 20150427H
[5] = Tableting treatment, batch 20150427P

Row | Purity by HPLC, 40° C. ([1]; Day 0) | Purity by HPLC, 40° C. ([1]; Day 5) | Purity by HPLC, 40° C. ([1]; Day 10) | Purity by HPLC, 60° C. ([1]; Day 0) | Purity by HPLC, 60° C. ([1]; Day 5) | Purity by HPLC, 60° C. ([1]; Day 10) | Purity by HPLC, RH 75% ([1]; Day 0) | Purity by HPLC, RH 75% ([1]; Day 5) | Purity by HPLC, RH 75% ([1]; Day 10) | Purity by HPLC, RH 90% ([1]; Day 0) | Purity by HPLC, RH 90% ([1]; Day 5) | Purity by HPLC, RH 90% ([1]; Day 10) | Purity by HPLC, Lighting ([1]; Day 0) | Purity by HPLC, Lighting ([1]; Day 5) | Purity by HPLC, Lighting ([1]; Day 10) | SMILES | further results
1 | 97.70% | 97.64% | 97.57% | 97.70% | 97.68% | 97.52% | 97.70% | 97.52% | 97.59% | 97.70% | 97.50% | 97.48% | 97.70% | 97.67% | 97.62% | CC#CC(=O)N1CC[C@@H](n2cc(-c3ccc(Oc4c(F)cccc4F)cc3)c3c(N)n[nH]c(=O)c32)C1 [Amorphous form, (R)-4-amino-1-(1-(but-2-ynoyl)pyrrolidin-3-yl)-3-(4-(2,6-difluorophenoxy)phenyl)-1H-pyrrolo[2,3-d]pyridazin-7(6H)-one] | –
2 | 99.21% | 99.28% | 99.35% | 99.21% | 99.26% | 99.25% | 99.21% | 99.30% | 99.25% | 99.21% | 99.30% | 99.32% | 99.21% | 99.26% | 99.25% | CC#CC(=O)N1CC[C@@H](n2cc(-c3ccc(Oc4c(F)cccc4F)cc3)c3c(N)n[nH]c(=O)c32)C1 [Crystal form I, (R)-4-amino-1-(1-(but-2-ynoyl)pyrrolidin-3-yl)-3-(4-(2,6-difluorophenoxy)phenyl)-1H-pyrrolo[2,3-d]pyridazin-7(6H)-one] | Crystal form after treatment [2, 3]: Crystal; DSC peak after treatment [2, 3]: 239.32 °C; Crystal form after treatment [2, 4]: Crystal; DSC peak after treatment [2, 4]: 238.98 °C; Crystal form after treatment [2, 5]: Crystal; DSC peak after treatment [2, 5]: 241.19 °C; Stability of the crystal form ([2]; ground, heated and tableted (grinding, pressure and heating)): stable; Stability compared with the amorphous sample ([1]; conditions of lighting, high temperature and high humidity): significantly better than that of the amorphous sample
